Test results taken from publication PMC7864676 (Journal of pharmacological sciences, 2018).

T1: human organic anion transporter-3 (hOAT3) (Homo sapiens, UniProt Q8TCC7)
T1 sequence (Q8TCC7 1-542): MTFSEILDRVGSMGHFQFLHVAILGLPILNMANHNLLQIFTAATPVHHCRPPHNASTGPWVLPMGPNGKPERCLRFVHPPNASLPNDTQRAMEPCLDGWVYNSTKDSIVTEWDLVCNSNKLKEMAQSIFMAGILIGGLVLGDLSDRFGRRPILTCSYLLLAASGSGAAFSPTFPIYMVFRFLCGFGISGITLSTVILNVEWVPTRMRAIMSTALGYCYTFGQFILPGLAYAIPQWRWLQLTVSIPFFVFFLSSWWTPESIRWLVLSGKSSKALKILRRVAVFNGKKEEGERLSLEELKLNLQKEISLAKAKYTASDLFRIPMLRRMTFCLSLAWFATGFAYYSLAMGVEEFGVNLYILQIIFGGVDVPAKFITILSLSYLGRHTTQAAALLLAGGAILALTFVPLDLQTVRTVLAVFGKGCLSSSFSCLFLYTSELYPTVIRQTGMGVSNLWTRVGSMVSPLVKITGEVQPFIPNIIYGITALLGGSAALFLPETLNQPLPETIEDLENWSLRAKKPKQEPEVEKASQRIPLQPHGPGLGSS

B1: human organic anion transporter-3 (hOAT3) (Homo sapiens) (protein)
chain: MTFSEILDRVGSMGHFQFLHVAILGLPILNMANHNLLQIFTAATPVHHCRPPHNASTGPWVLPMGPNGKPERCLRFVHPPNASLPNDTQRAMEPCLDGWVYNSTKDSIVTEWDLVCNSNKLKEMAQSIFMAGILIGGLVLGDLSDRFGRRPILTCSYLLLAASGSGAAFSPTFPIYMVFRFLCGFGISGITLSTVILNVEWVPTRMRAIMSTALGYCYTFGQFILPGLAYAIPQWRWLQLTVSIPFFVFFLSSWWTPESIRWLVLSGKSSKALKILRRVAVFNGKKEEGERLSLEELKLNLQKEISLAKAKYTASDLFRIPMLRRMTFCLSLAWFATGFAYYSLAMGVEEFGVNLYILQIIFGGVDVPAKFITILSLSYLGRHTTQAAALLLAGGAILALTFVPLDLQTVRTVLAVFGKGCLSSSFSCLFLYTSELYPTVIRQTGMGVSNLWTRVGSMVSPLVKITGEVQPFIPNIIYGITALLGGSAALFLPETLNQPLPETIEDLENWSLRAKKPKQEPEVEKASQRIPLQPHGPGLGSS

Key:
[1] = biological target: T1, human organic anion transporter-3 (hOAT3); experiment: cis-inhibition of [3H]-estrone sulfate uptake in hOAT3-expressing HEK293 cells; type: cell-based
[2] = substrate: C[C@]12CC[C@@H]3c4ccc(OS(=O)(=O)O)cc4CC[C@H]3[C@@H]1CCC2=O; experiment: cells, lysate or membranes

Molecule	Ki [1]	Km [2]
C[C@@H]1C[C@H]2[C@@H]3CCC4=CC(=O)C=C[C@]4(C)[C@@]3(F)[C@@H](O)C[C@]2(C)[C@@]1(O)C(=O)CO [dexamethasone]	47.1 µM	–
B1	–	5.07 ± 0.49 µM
